Assay results: patent publication US11458121B2, “Therapeutic compounds and methods to treat infection” (priority 2017, dated 2022)
In brackets after ≈: the same amount, converted by molar mass. Like-named read-outs stand apart in the source and are kept apart here.

What was measured:
E. coli 25922 = assay: Intrinsic MIC assay (CLSI broth microdilution); type: cell-based, Escherichia coli; details: read-out: Antibiotic Activity Against E. coli Intrinsic MIC
From the text: As used herein, the term “minimum inhibitory concentration (MIC)” refers to the lowest concentration of a compound (e.g., an antibiotic) that prevents visible growth of a bacterium. Assays for measuring the MIC of a compound are known in the art, for example, as described herein. As used herein, the term “intrinsic MIC” refers the MIC of a compound (e.g., an antibiotic) for the particular bacterial species that has not been pre-exposed to the compound. Intrinsic MIC Assays MIC assays were conducted in accordance with Clinical and Laboratory Standards Institute (CLSI) guidelines for broth microdilution. A 96-well plate containing cation-adjusted Mueller-Hinton (CAMH broth with 2-fold serial dilution of compounds was inoculated with log-phase bacterial at 5×10^5 CFU/mL. The final volume in each well was 100 μL. Each compound was tested in duplicate. The microtiter plates were incubated in an aerobic environment for 18 hours at 37° C. Then the bacterial growth was tested by reading the plate with a VersaMax plate reader (Molecular Devices, Inc.) at 600 nm. The MIC was defined as the lowest compound concentration that inhibited 90% of bacteria growth. The intrinsic MIC of the experimental EPIs was tested with the method described. […] The following Gram-negative bacterial strains were included in these assays: Escherichia coli ATCC 25922

P. aeruginosa PAO1 [1] = assay: MIC assay in the presence of a bacterial efflux pump inhibitor (EPI); type: cell-based, Pseudomonas aeruginosa; details: P. aeruginosa PAO1; for Enhancement (intrinsic MIC versus MIC with EPI): fold enhancement with 12.5 ug/ml EPI; for Antibiotic Activity Against P. aeruginosa MIC with EPI: with 12.5 ug/ml of EPI (2S,4R)-4-(ammoniomethyl)-2-((6-(4-fluorophenyl)-1H-indole-2-carboxamido)methyl)pyrrolidin-1-ium
Description: The ability of a compound to produce an antibiotic effect can be determined using a method as described in Example 42. […] MIC assays were conducted in accordance with Clinical and Laboratory Standards Institute (CLSI) guidelines for broth microdilution. A 96-well plate containing cation-adjusted Mueller-Hinton (CAMH broth with 2-fold serial dilution of compounds was inoculated with log-phase bacterial at 5×10^5 CFU/mL. The final volume in each well was 100 μL. Each compound was tested in duplicate. The microtiter plates were incubated in an aerobic environment for 18 hours at 37° C. Then the bacterial growth was tested by reading the plate with a VersaMax plate reader (Molecular Devices, Inc.) at 600 nm. The MIC was defined as the lowest compound concentration that inhibited 90% of bacteria growth. MIC Assays in the Presence of a Bacterial Efflux Inhibitor The EPI assay for the purposes of these studies represents a MIC assay in which the MIC of the antibiotic against the bacteria is tested in the presence of an experimental efflux pump inhibitor (EPI). The highest concentration of the EPI present in the assay typically is ½ of the intrinsic MIC of the compound. […] Using serial dilutions of the EPI, its enhancement of antibiotic activity was then evaluated. The relative EPI activity was decided by comparing the MIC of the antibiotic in the presence of the EPI compound with the intrinsic MIC of the antibiotic alone. For comparative purposes, we generally used EPIs at concentration of 12.5 and 6.25 μg/ml against varying concentration of our test antibiotic.

P. aeruginosa PAO1 [2] = assay: Intrinsic MIC assay (CLSI broth microdilution); type: cell-based; details: Pseudomonas aeruginosa, read-out: Antibiotic Activity Against P. aeruginosa Intrinsic MIC
From the text: As used herein, the term “minimum inhibitory concentration (MIC)” refers to the lowest concentration of a compound (e.g., an antibiotic) that prevents visible growth of a bacterium. Assays for measuring the MIC of a compound are known in the art, for example, as described herein. As used herein, the term “intrinsic MIC” refers the MIC of a compound (e.g., an antibiotic) for the particular bacterial species that has not been pre-exposed to the compound. Intrinsic MIC Assays MIC assays were conducted in accordance with Clinical and Laboratory Standards Institute (CLSI) guidelines for broth microdilution. A 96-well plate containing cation-adjusted Mueller-Hinton (CAMH broth with 2-fold serial dilution of compounds was inoculated with log-phase bacterial at 5×10^5 CFU/mL. The final volume in each well was 100 μL. Each compound was tested in duplicate. The microtiter plates were incubated in an aerobic environment for 18 hours at 37° C. Then the bacterial growth was tested by reading the plate with a VersaMax plate reader (Molecular Devices, Inc.) at 600 nm. The MIC was defined as the lowest compound concentration that inhibited 90% of bacteria growth. The intrinsic MIC of the experimental EPIs was tested with the method described. […] The following Gram-negative bacterial strains were included in these assays: Pseudomonas aeruginosa PAO1

[3] = Escherichia coli, 18 h, E. coli 25922, compound alone, without EPI
[4] = 18 h, P. aeruginosa PAO1, compound alone, without EPI, MIC = lowest concentration inhibiting 90% of growth

Compound | MIC (E. coli 25922; [3]) [µg/mL] | Antibiotic Activity Against P. aeruginosa MIC with EPI (P. aeruginosa PAO1 [1]) [µg/mL] | MIC (P. aeruginosa PAO1 [2]; [4]) [µg/mL] | Enhancement (intrinsic MIC versus MIC with EPI) (P. aeruginosa PAO1 [1]) | MIC (E. coli 25922; Escherichia coli, 25922, 18 h) [µg/mL] | MIC (P. aeruginosa PAO1 [2]; PAO1, 18 h) [µg/mL]
CC(C)C1Cc2c([nH]c3cc(Cl)c(Cl)cc23)C(N)C1 (stereo not drawn) [Example 38, 6,7-Dichloro-3-isopropyl-2,3,4,9-tetrahydro-1H-carbazol-1-amine] | 4 (≈ 13.5 µM) | 4 | > 256 | (>64x) | – | –
NC1CC(c2ccccc2)Cc2c1[nH]c1ccc(Br)cc21 (stereo not drawn) [Example 35, 6-Bromo-3-phenyl-2,3,4,9-tetrahydro-1H-carbazol-1-amine] | 8 (≈ 23.4 µM) | 8 | > 256 | (>32x) | – | –
CCOC(=O)C1Cc2c([nH]c3ccc(Br)cc23)C(N)C1 (stereo not drawn) [Example 27, Ethyl 1-amino-6-bromo-2,3,4,9-tetrahydro-1H-carbazole-3-carboxylate] | 16 (≈ 47.4 µM) | 32 | > 256 | (>8x) | – | –
CC(C)C1Cc2c([nH]c3ccc(Br)cc23)C(N)C1 (stereo not drawn) [Example 30, 6-Bromo-3-isopropyl-2,3,4,9-tetrahydro-1H-carbazol-1-amine] | 4 (≈ 13 µM) | 8 | 64 (≈ 208 µM) | (8x) | – | –
NC1CCCc2c1[nH]c1c(Br)cccc21 (stereo not drawn) [Example 17, 8-Bromo-2,3,4,9-tetrahydro-1H-carbazol-1-amine] | 64 (≈ 241 µM) | 128 | > 256 | (>2x) | – | –
CC1(C)Cc2c([nH]c3ccc(Br)cc23)C(N)C1 (stereo not drawn) [Example 26, 6-Bromo-3,3-dimethyl-2,3,4,9-tetrahydro-1H-carbazol-1-amine] | 32 (≈ 109 µM) | 4 | 64 (≈ 218 µM) | (16x) | – | –
NC1CCCc2c1[nH]c1ccc(C(F)(F)F)cc21 (stereo not drawn) [Example 14, 6-(Trifluoromethyl)-2,3,4,9-tetrahydro-1H-carbazol-1-amine] | 64 (≈ 252 µM) | 2 | 64 (≈ 252 µM) | (32x) | – | –
N#Cc1ccc2[nH]c3c(c2c1)CCCC3N (stereo not drawn) [Example 16, 1-Amino-2,3,4,9-tetrahydro-1H-carb azole-6-carbonitrile] | 256 (≈ 1210 µM) | 32 | > 256 | (>8x) | – | –
CC1(C)CCC(N)c2[nH]c3ccc(Br)cc3c21 (stereo not drawn) [Example 24, 6-Bromo-4,4-dimethyl-2,3,4,9-tetrahydro-1H-carbazol-1-amine] | – | 16 | – | (4x) | 16 (≈ 54.6 µM) | 64 (≈ 218 µM)
NC1CCCc2c1[nH]c1ccc(OC(F)(F)F)cc21 (stereo not drawn) [Example 15, 6-(Trifluoromethoxy)-2,3,4,9-tetrahydro-1H-carbazol-1-amine] | 64 (≈ 237 µM) | 16 | 128 (≈ 474 µM) | (8x) | – | –

Now from value to compound, other results behind:

MIC (E. coli 25922; [3]) [µg/mL] | Antibiotic Activity Against P. aeruginosa MIC with EPI (P. aeruginosa PAO1 [1]) [µg/mL] | MIC (P. aeruginosa PAO1 [2]; [4]) [µg/mL] | Compound | Enhancement (intrinsic MIC versus MIC with EPI) (P. aeruginosa PAO1 [1]) | MIC (E. coli 25922; Escherichia coli, 25922, 18 h) [µg/mL] | MIC (P. aeruginosa PAO1 [2]; PAO1, 18 h) [µg/mL]
> 256 | >64 | > 256 | O=C(NC1CCCc2c1[nH]c1ccc(Br)cc21)c1ccccc1 (stereo not drawn) [Example 9, N-(6-Bromo-2,3,4,9-tetrahydro-1H-carbazol-1-yl)benzamide] | (4x) | – | –
32 (≈ 115 µM) | 8 | 256 (≈ 917 µM) | CNC1CCCc2c1[nH]c1ccc(Br)cc21 (stereo not drawn) [Example 7, 6-Bromo-N-methyl-2,3,4,9-tetrahydro-1H-carbazol-1-amine] | (32x) | – | –
16 (≈ 51.9 µM) | 16 | 32 (≈ 104 µM) | NCCNC1CCCc2c1[nH]c1ccc(Br)cc21 (stereo not drawn) [Example 39, N^1-(6-bromo-2,3,4,9-tetrahydro-1H-carbazol-1-yl)ethane-1,2-diamine] | – | – | –
16 (≈ 48.4 µM) | 4 | > 256 | NC1CCCc2c1[nH]c1ccc(-c3ccc(C(F)(F)F)cc3)cc21 (stereo not drawn) [Example 4, 6-(4-(Trifluoromethyl)phenyl)-2,3,4,9-tetrahydro-1H-carbazol-1-amine] | (>64x) | – | –
64 (≈ 217 µM) | 32 | 256 (≈ 867 µM) | NC1CC(CO)Cc2c1[nH]c1ccc(Br)cc21 (stereo not drawn) [Example 29, (1-Amino-6-bromo-2,3,4,9-tetrahydro-1H-carbazol-3-yl)methanol] | (8x) | – | –
128 (≈ 381 µM) | 128 | > 256 | CN(C)C(=O)C1Cc2c([nH]c3ccc(Br)cc23)C(N)C1 (stereo not drawn) [Example 33, 1-Amino-6-bromo-N,N-dimethyl-2,3,4,9-tetrahydro-1H-carbazole-3-carboxamide] | (>2x) | – | –
16 (≈ 57.1 µM) | 4 | 256 (≈ 913 µM) | NC1CCCc2c1[nH]c1ccc(-c3ccc(F)cc3)cc21 (stereo not drawn) [Example 2, 6-(4-Fluorophenyl)-2,3,4,9-tetrahydro-1H-carbazol-1-amine] | (64x) | – | –
> 256 | >64 | > 256 | CC(C)(C)OC(=O)NC1CCCc2c1[nH]c1cc(Br)ccc21 (stereo not drawn) [Example 11, Tert-Butyl (7-bromo-2,3,4,9-tetrahydro-1H-carbazol-1-yl)carbamate] | (4x) | – | –
16 (≈ 72.5 µM) | 1 | 128 (≈ 580 µM) | NC1CCCc2c1[nH]c1ccc(Cl)cc21 (stereo not drawn) [Example 13, 6-Chloro-2,3,4,9-tetrahydro-1H-carbazol-1-amine] | (16x) | – | –
